Measured values reported in patent US9315482B2, “Derivatives useful as antiviral agents” (priority 2010, dated 2016).
Read-outs that look alike come from different tables or passages of the source.

Assays:
measles virus (MV) = assay: Inhibition of measles virus replication in HEK-293T cells, recombinant measles virus expressing luciferase (MV-Luc); conditions: for in vitro replication of the measles virus (MV) (luciferase activity) / in vitro replication of measles virus (MV) (luciferase activity): MV-Luc; for in vitro replication of measles virus (MV) (luciferase activity): Example 37, HEK-293T cells, FIG. 11B; for in vitro replication of measles virus (luciferase activity): Example 32, HEK-293T cells, 1 M.O.I., 20, 10, 5 μg/ml, FIG. 6; for in vitro replication of measles virus (luciferase activity) / in vitro replication of measles virus expressing luciferase: 48 h; for in vitro replication of measles virus expressing luciferase: Example 33, HEK-293T cells, FIG. 7
[1] = Metabolic stability over human liver microsomes; type: in vitro ADME; conditions: human liver microsomes 0.5 mg/mL, 1 mM NADPH, 2.5 μM compound, 37 °C
Description: The metabolic stability of compounds DD771 and GAC50 has been measured over human liver microsomes
Incubation (n=2) • A solution comprising each compound is prepared at a concentration of 1 mM in DMSO. • Said solution is diluted 1/100 in a phosphate buffer containing 0.5 mg/mL of human liver microsomes, 1 mM NADPH and 5 mM MgCl2.
The final concentration of each compound in the assay is 2.5 μM (0.25% de DMSO). • After homogenization (30 s), 50 μL are taken and mixed to 50 μL acetonitrile in order to precipitate the proteins present in the medium and to solubilise the compound. • The mixture is vortexed during 3 min then sonicated during 3 min and finally centrifuged during 10 min at 15 000 g and 4° C. • The same treatment is done at times 15, 30, 45 and 60 minutes. • The supernatants are injected and analysed by LC-MS/MS following standard method. • In parallel, incubation is carried out and in duplicate by substituting the co-factor NADPH by an equivalent buffer volume. • A sample is taken at t=60 min only.
Analyse LC-MS/MS: • All the samples are analysed by UHPLC coupled to a triple quadruple Shimadzu LC-MS 3080.
Calculations: • Half life: […] • Intrinsec clearance: CLint=V×ln2/t1/2
k: disappearance rate constant (min^−1)
V=incubation volume/protein mass (μL/mg)

HEK-293T cells [2] = tested on: HEK-293T cells
RSV B1 = assay: Inhibition of human respiratory syncytial virus in MRC5 cells, flow cytometry (RSV B1); type: cell-based; conditions: M.O.I of 1, 20, 10 μg/ml, 48 h, FIG. 4
Description: (§1) After 24 h, cell culture medium was removed, and cells were incubated for at 37° C. in the presence RSV A2 or RSV B1 at a M.O.I of 1. […] After 48 h, cells were harvested, treated with Cytofix/Cytoperm fixation/permeabilization solution (Becton-Dickinson), and stained with anti-H antibodies (ab20391, Abeam) to detect the virus glycoprotein. The percentage of infected cells was determined by flow cytometry analysis. Interferon beta (IFN-β) was used as a reference.

[3] = tested on: dengue virus (serotype 4); assay: Inhibition of dengue virus replication in HEK-293T cells, glycoprotein immunostaining; type: cell-based; conditions: 0.1 M.O.I., 5, 10, 20 μg/ml, 72 h, FIG. 2
From the text: Culture medium was removed, and cells were fixed in 90% acetone. Finally, infected cells were stained for dengue virus glycoprotein expression using a 1/1000 dilution of a specific antibody (clone 1H10-6; Millipore) in PBS+5% goat serum.

[4] = tested on: human coronavirus 229E (229E); assay: Inhibition of human coronavirus 229E in MRC5 cells, spike glycoprotein immunostaining; conditions: M.O.I.=0.01, compounds at 20 μg/ml, FIG. 1
[5] = tested on: human parainfluenza virus type 3 (hPIV3); assay: Inhibition of human parainfluenza virus type 3 in HEK-293T cells, glycoprotein immunostaining; type: cell-based; conditions: 1 M.O.I., 2.5, 5, 10, 20 μg/ml, 48 h, FIG. 3
From the text: Culture medium was removed, and cells were fixed in 90% acetone. Infected cells were stained with a FITC-conjugated monoclonal antibody (17-038; Argene) to detect the virus glycoprotein (green fluorescence). Cells were counterstained with Evans blue (red fluorescence).

RSV A2 = assay: Inhibition of human respiratory syncytial virus in MRC5 cells, flow cytometry (RSV A2); type: cell-based; conditions: M.O.I of 1, 20, 10 μg/ml, 48 h, FIG. 4
Description: as §1

[6] = tested on: ISRE-luciferase construct; assay: Stimulation of the ISRE-luciferase construct; type: cell-based; conditions: selection screen
[7] = tested on: herpes simplex virus 1 (HSV1); assay: Antiviral activity against herpes simplex virus 1; type: cell-based; conditions: DNA virus
[8] = tested on: herpes simplex virus 2 (HSV2); assay: Antiviral activity against herpes simplex virus 2; type: cell-based; conditions: DNA virus
West-Nile virus (WNV) = assay: Inhibition of West-Nile virus (WNV) in HEK-293T cells, glycoprotein immunostaining; conditions: M.O.I.=1, compounds at 5 μg/ml, FIG. 1
coxsackievirus B3 = assay: Inhibition of coxsackievirus B3 in HEK-293T cells, virus titers by TCID50; type: cell-based; conditions: 0.1 M.O.I., 10 μg/ml, 24 h, FIG. 5
Description: Finally, supernatants were harvested, and virus titers were determined by TCID50 (Tissue Culture Infecting Dose) on vera cells.

RNA viruses = assay: Antiviral activity against nine RNA viruses (summary); conditions: 2.5 to 20 μg/ml
HEK-293T cells [9] = assay: Cellular toxicity in HEK-293T cells (intracellular ATP, CellTiter-Glo); conditions: for cellular toxicity (intracellular ATP, CellTiter-Glo): HEK-293T cells, FIG. 12C
[10] = Example 36, HEK-293T cells, 24 hours, FIG. 10
[11] = Example 34, HEK-293T cells, 48 hours, FIG. 8

CC1(C)CC(=O)c2c(-c3cccc(Cl)c3)coc2C1
melting point: 104 to 105 °C

COc1ccc(Cl)cc1-c1coc2c1C(=O)CCC2
melting point: 136 to 137 °C

COc1ccc(Cl)cc1C1C2=C(CCCC2=O)OC1[N+](=O)[O-] (centres unmarked)
melting point: 171 to 172 °C

O=C1CCCc2occ(-c3cccc(Br)c3)c21
melting point: 106 to 107 °C

O=C1CCCc2occ(-c3cccc(F)c3)c21
melting point: 65 to 66 °C

O=C1CCCc2occ(-c3ccc(Cl)cc3)c21
melting point: 104 to 105 °C

O=C1CCCc2occ(-c3ccccc3Cl)c21
melting point: 147 to 148 °C

O=C1CCCC2=C1C(c1ccccc1Cl)C([N+](=O)[O-])O2 (centres unmarked)
melting point: 162 to 163 °C

COc1cccc(-c2coc3c2C(=O)CCC3)c1
melting point: 79 to 80 °C

O=C1CCCc2occ(-c3cc(Cl)cc(Cl)c3)c21
melting point: 105 to 106 °C

O=C1CCCc2occ(-c3cccc([N+](=O)[O-])c3)c21
melting point: 94 to 95 °C

CC1CC(=O)c2c(-c3cccc(Cl)c3)coc2C1 (centres unmarked)
melting point: 121 to 122 °C

ON=C1CCCc2occ(-c3cccc(Cl)c3)c21
melting point: 157 to 158 °C

COc1cc(-c2coc3c2C(=O)CCC3)cc(OC)c1OC
melting point: 140 to 141 °C

O=C1CCCc2occ(-c3ccc(Cl)c(Cl)c3)c21
melting point: 122 to 123 °C

CC(=O)C1=C(C)OC([N+](=O)[O-])C1c1cccc(Cl)c1 (centres unmarked)
melting point: 84 to 85 °C

3-(1H-5-chloroindol-3-yl)-2-nitro-2,3-dihydrofuro[3,2-c]chromen-4-one [DD771]
in vitro replication of the measles virus (MV) (luciferase activity) (measles virus (MV); [10]): blocked
in vitro replication of measles virus (MV) (luciferase activity) (measles virus (MV); 24 hours): blocked
Half life [1]: No significative metabolism
Intrinsic Clearance [1]: No significative metabolism
cellular toxicity (intracellular ATP, CellTiter-Glo) (HEK-293T cells [2]): acceptable cytotoxicity

3-(1H-5-fluoroindol-3-yl)-2-nitro-2,3-dihydrofuro[3,2-c]chromen-4-one [DD776]
in vitro replication of the measles virus (MV) (luciferase activity) (measles virus (MV); [10]): blocked

3-(1H-5-methylindol-3-yl)-2-nitro-2,3-dihydrofuro[3,2-c]chromen-4-one [DD778]
in vitro replication of the measles virus (MV) (luciferase activity) (measles virus (MV); [10]): blocked

O=c1oc2ccccc2c2c1C(c1c[nH]c3ccccc13)C([N+](=O)[O-])O2 (centres unmarked) [Example 123-G05, 3-(1H-Indol-3-yl)-2-nitro-2,3-dihydrofuro[3,2-c]chromen-4-one]
in vitro replication of hRSV serotype B1 (percentage of infected cells) (RSV B1): blocked
in vitro replication of dengue virus (serotype 4) [3]: blocked
in vitro replication of measles virus (luciferase activity) (measles virus (MV)): blocked
in vitro replication of 229E (spike glycoprotein expression by immunostaining) [4]: blocked
melting point: 248 to 250 °C (dec.)
in vitro replication of human parainfluenza virus type 3 [5]: blocked
in vitro replication of hRSV serotype A2 (percentage of infected cells) (RSV A2): blocked
ability to stimulate the ISRE-luciferase construct [6]: ability to stimulate the ISRE-luciferase construct
cytotoxic effects on HEK-293T cells (HEK-293T cells [2]): absence of cytotoxic effects
effects against HSV1 [7]: no effects
effects against HSV2 [8]: no effects
in vitro replication of WNV (glycoprotein expression by immunostaining) (West-Nile virus (WNV)): blocked
in vitro production of coxsackievirus B3 (virus titers by TCID50) (coxsackievirus B3): blocked
cytopathic effects at concentrations blocking RNA virus replication (RNA viruses): no detectable cytopathic effects
cellular toxicity (intracellular ATP, CellTiter-Glo) (HEK-293T cells [9]): acceptable cytotoxicity

O=C1CCCc2occ(-c3cccc(Cl)c3)c21 [Example 129-G03, 3-(3-chlorophenyl)-6,7-dihydro-5H-benzofuran-4-one]
in vitro replication of hRSV serotype B1 (percentage of infected cells) (RSV B1): blocked
in vitro replication of dengue virus (serotype 4) [3]: blocked
in vitro replication of measles virus (luciferase activity) (measles virus (MV)): blocked
in vitro replication of measles virus expressing luciferase (measles virus (MV)): blocked
in vitro replication of the measles virus (MV) (luciferase activity) (measles virus (MV); [11]): blocked
in vitro replication of the measles virus (MV) (luciferase activity) (measles virus (MV); [10]): blocked
in vitro replication of measles virus (MV) (luciferase activity) (measles virus (MV); 24 hours): blocked
in vitro replication of 229E (spike glycoprotein expression by immunostaining) [4]: blocked
melting point: 87 to 88 °C
in vitro replication of human parainfluenza virus type 3 [5]: blocked
in vitro replication of hRSV serotype A2 (percentage of infected cells) (RSV A2): blocked
ability to stimulate the ISRE-luciferase construct [6]: ability to stimulate the ISRE-luciferase construct
effects against HSV1 [7]: no effects
effects against HSV2 [8]: no effects
in vitro replication of WNV (glycoprotein expression by immunostaining) (West-Nile virus (WNV)): blocked
in vitro production of coxsackievirus B3 (virus titers by TCID50) (coxsackievirus B3): blocked
cytopathic effects at concentrations blocking RNA virus replication (RNA viruses): no detectable cytopathic effects
cellular toxicity (intracellular ATP, CellTiter-Glo) (HEK-293T cells [9]): acceptable cytotoxicity
cytotoxic effects on HEK-293T cells (HEK-293T cells [9]; selection screen): absence of cytotoxic effects

O=C1CCCc2occ(-c3cccc(I)c3)c21 [GAC25, 3-(3-iodophenyl)-6,7-dihydro-5H-benzofuran-4-one]
in vitro replication of measles virus expressing luciferase (measles virus (MV)): blocked
in vitro replication of the measles virus (MV) (luciferase activity) (measles virus (MV); [11]): blocked
melting point: 135 to 136 °C

C=Cc1cccc(-c2coc3c2C(=O)CCC3)c1 [GAC50, 3-(3-ethenylphenyl)-6,7-dihydro-5H-benzofuran-4-one]
in vitro replication of the measles virus (MV) (luciferase activity) (measles virus (MV); [11]): blocked
in vitro replication of measles virus (MV) (luciferase activity) (measles virus (MV); 24 hours): blocked
melting point: 88 to 89 °C
half-life at 2.5 μM [1]: 11.3 min
microsomal CLint at 2.5 μM ([1]; read-out: Intrinsic Clearance): 49.1 µL/min/mg
